Patent US8697652B2, “Cosmetic use of at least the natural tetrapeptide Ac-Ser-Asp-Lys-Pro or one of its analogs as a skin restructuring agent” (Centre National de la Recherche Scientifique (CNRS), priority 2004, dated 2014)
Ends that are not written are not given here.

Assays:
Assay type in all cases: cell-based
[1] = tested on: Basal Membrane Collagen (Type IV); assay: Immunolabelling of collagen IV in human skin explants
Experimental: (§1) This study was conducted on thirty six human skin explants obtained from breast plastic surgery.
(§2) All the explants were maintained in a state of survival in a culture medium for eight days. AcSDKP at a concentration of 10^−5 M or 10^−8 M in physiological serum was applied to the explants by topical route every day for one week. On days 2, 4, 6 and 8, three explants from each batch (control, +AcSDKP 10^−5 M+ AcSDKP 10^−8 M) were removed and prepared for histological studies. General morphology was examined and an evaluation of the expression of basal keratin (CK14), undifferentiated keratin (CK19), collagen III, collagen IV, fibronectin and glycosaminoglycan without an acid group was performed.

human skin explants = assay: General morphology (Masson Trichrome) of human skin explants treated topically with AcSDKP
Experimental: as §1, §2
This is seen by an increased number of live cell bases.

Keratin 19 (CK19) = assay: Immunolabelling of keratin 19 in human skin explants
Experimental: as §1, §2

Glycosaminoglycan (GAGs) = assay: P.A.S. Alcian blue staining of GAGs without acid groups in human skin explants
Experimental: as §1, §2
This effect, clearly visible at D6 and D8, is characterised by a PAS positive increase in the number of fibroblasts in the papillary dermis, especially in the band situated along the dermo-epidermal junction and by increased levels of GAGs in these fibroblasts.

fibronectin = assay: Immunolabelling of fibronectin in human skin explants
Experimental: as §1, §2

Keratin 14 (CK14) = assay: Immunolabelling of keratin 14 in human skin explants
Experimental: as §1, §2

[2] = tested on: Dermal Collagen (Type III); assay: Immunolabelling of collagen III in human skin explants
Experimental: as §1, §2

[3] = AcSDKP 10^-5 M compared with 10^-8 M

## Acetyl-Ser-Asp-Lys-Pro (Ac-SDKP) [AcSDKP, natural tetrapeptide isolated from calf foetus bone marrow or obtained by peptide synthesis]
[1]; [3]
  increase in collagen IV levels: higher
[1]; AcSDKP 10^-5 M or 10^-8 M, D6 and D8, compared with type III collagen
  increase in collagen IV levels in the basal membrane along the dermo-epidermal junction: less pronounced than that for type III collagen
[1]; summary statement
  expression of collagen IV in treated skin (summary): stimulatory effect
Human skin explants; [3]
  increase in epidermal thickness: greater
Human skin explants; AcSDKP 10^-5 M or 10^-8 M, topical daily, as of D6 of treatment
  epidermal structure (general morphology): stimulation of the epidermal structure
Human skin explants; conclusion of explant study
  overall effect on epidermis and dermis (conclusion): restructuring of the epidermis and dermis
Keratin 19 (CK19); [3]
  CK19 effect: less marked effect
Keratin 19 (CK19); AcSDKP 10^-5 M or 10^-8 M, as of D6 of treatment
  CK19 expression (immunolabelling): overexpression of the skin's dermal attachments
Keratin 19 (CK19); summary statement
  production of CK19 in treated skin (summary): stimulates the production
Glycosaminoglycan (GAGs); [3]
  GAG activity: higher level of activity
Glycosaminoglycan (GAGs); AcSDKP 10^-5 M or 10^-8 M, clearly visible at D6 and D8
  levels of GAGs without acid groups: significant increase in the levels of these compounds
fibronectin; [3]
  fibronectin activity: greater activity
fibronectin; area treated with AcSDKP
  fibronectin network: denser and has thicker fibres
fibronectin; treated skin
  fibronectin expression (immunolabelling, summary): overexpression of this protein along a dermo-epidermal junction as well as in the papillary and reticular dermis
Keratin 14 (CK14); [3]
  CK14 restructuring effect: greater
Keratin 14 (CK14); basal and superbasal position, as of D4 of treatment
  CK14 levels (immunolabelling): gradual increase in the levels of this protein
Keratin 14 (CK14); summary statement
  production of CK14 in treated skin (summary): stimulates the production
[2]; AcSDKP 10^-5 M, D8
  collagen III expression: very clear overexpression of collagen III in the papillary and reticular dermis
[2]; AcSDKP 10^-5 M, six days of treatment
  collagen III levels: very marked increase in collagen III levels in the papillary dermis along the dermo-epidermal junction
[2]; AcSDKP 10^-8 M, D6
  collagen III in the remainder of the papillary dermis and reticular dermis: more present
[2]; AcSDKP 10^-8 M, D6, compared with 10^-5 M
  collagen III expression along the dermo-epidermal junction: less pronounced
[2]; AcSDKP 10^-8 M, D8
  level of collagen III: increases along the dermo-epidermal junction and forms a thicker collagen band
[2]; summary statement
  expression of collagen III in treated skin (summary): stimulatory effect
